Laboratory results reported in US20250270180A1, “MEK INHIBITORS AND THERAPEUTIC USES THEREOF” (Immuneering Corporation, priority 2020, published 2025).
Like-named read-outs stand apart in the source and are kept apart here.

Key:
A549 pERK = test: A549-pERK, 2 h (quantitative Western, Jess); assay type: cell-based; settings: Homo sapiens, A549, 2 h, phospho:total ratio normalized to DMSO control; for activity at 0.01 µM: 10 nM
In short: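 Cells treated in duplicate for 2 h with compound, lysed and protein-normalised (1 mg/mL pERK, 1.5 mg/mL pMEK). Quantitative capillary Western; phospho/total protein ratio normalised to DMSO.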

[1] = tested on: A549 (KRAS G12S) pERK: total ERK; test: Phospho-ERK screen in A549 (KRAS G12S); assay type: cell-based; settings: 10 μM for 2 hours; for activity at 10 µM: Homo sapiens, A549, 2 h, read-out: pERK: total ERK (% relative to vehicle)
Description: Materials and Methods: A549 or A375 cells were seeded in 6-well plates at an appropriate seeding density on day 0. On day 2 or 3, after checking the health and confluency of cells, the media was aspirated and replaced with 1 mL media containing a predetermined concentration of compound and incubated for 2 hours. After 2 hours, the media was aspirated, and the cells washed 2 times with cold PBS. Cells were lysed on ice, with 50 uL 1×CST lysis buffer+1 mM PMSF for 5 minutes. After 5 minutes, cells were removed using a scraper and transferred to cold 1.5 mL tubes, and centrifuged for 10 min, 4° C., 14,000×g. Supernatant was gently removed and snap frozen in liquid nitrogen. Protein concentration of the lysate was determined using Bradford Reagent (analyzed using SpectraMax M2E) and diluted to 1 mg/mL or pERK or 1.5 mg/mL for pMEK analysis. Cell lysates were then analyzed for phosphor-ERK/total-ERK levels on a Jess system (ProteinSimple; Cat #JS3346) using the following antibodies: tERK1/2 (CST 4696; 1:50) and pERK1/2 (CST 4377; 1:50). For pMEK/tMEK, the following antibodies were used: tMEK1/2 (CST 4694; 1:15) and pMEK1/2 (CST 9154; 1:400). All dilutions were in Milk-free antibody diluent.
The results of a phospho-ERK Screen in A549 (KRAS G12S) study is described in Table 7, 7A, 7B, and 8 below.

[2] = tested on: A549 CRAF BP (MEK phosphorylation); test: A549-CRAF BP 100 nM, 2 h (pMEK); assay type: cell-based; settings: Homo sapiens, A549, 2 h, phospho:total ratio normalized to DMSO control
Description: A549 or […] cells were treated in duplicate for two hours with compounds at varying concentrations. After two hours, the cells were lysed, snap frozen, and stored at −80° C. After storage, the lysate was quantified with the Bradford assay. Before the lysates were prepared to run on the Jess, the lysates were diluted to 1 mg/mL for pERK analysis and 1.5 mg/mL pMEK analysis using quantitative Western blotting. ERK and MEK phosphorylation levels were estimated by taking the ratio of phospho-protein to total protein and normalizing to the DMSO control. The results of this study are described in Tables 14-16.

CYP450 2C9 = CYP450 2C9 (Homo sapiens, UniProt P11712); test: CYP450 panel, 2C9; settings: 10 μM; substrate Diclofenac
Plasma stability, human = assay type: in vitro ADME; settings: 2 μM
CYP450 2C8 = biological target: T1, CYP450 2C8 (Homo sapiens, UniProt P10632); test: CYP450 panel, 2C8; settings: 10 μM; substrate amodiaquine
T1 sequence (P10632 1-490): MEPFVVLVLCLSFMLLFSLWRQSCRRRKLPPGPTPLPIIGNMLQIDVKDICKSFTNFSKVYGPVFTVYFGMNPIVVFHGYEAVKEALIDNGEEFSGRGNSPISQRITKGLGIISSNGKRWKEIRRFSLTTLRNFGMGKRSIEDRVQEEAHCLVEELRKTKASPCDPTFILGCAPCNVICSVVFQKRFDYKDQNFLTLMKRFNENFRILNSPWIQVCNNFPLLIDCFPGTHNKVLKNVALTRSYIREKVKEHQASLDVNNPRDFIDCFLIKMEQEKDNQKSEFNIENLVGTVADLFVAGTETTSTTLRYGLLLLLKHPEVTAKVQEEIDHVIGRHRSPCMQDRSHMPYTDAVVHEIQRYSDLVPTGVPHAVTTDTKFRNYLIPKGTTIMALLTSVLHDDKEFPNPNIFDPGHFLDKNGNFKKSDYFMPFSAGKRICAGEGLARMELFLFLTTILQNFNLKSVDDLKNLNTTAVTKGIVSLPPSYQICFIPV

CYP450 2B6 = biological target: T2, CYP450 2B6 (Homo sapiens, UniProt P20813); test: CYP450 panel, 2B6; settings: 10 μM; substrate bupropion
T2 sequence (P20813 1-491): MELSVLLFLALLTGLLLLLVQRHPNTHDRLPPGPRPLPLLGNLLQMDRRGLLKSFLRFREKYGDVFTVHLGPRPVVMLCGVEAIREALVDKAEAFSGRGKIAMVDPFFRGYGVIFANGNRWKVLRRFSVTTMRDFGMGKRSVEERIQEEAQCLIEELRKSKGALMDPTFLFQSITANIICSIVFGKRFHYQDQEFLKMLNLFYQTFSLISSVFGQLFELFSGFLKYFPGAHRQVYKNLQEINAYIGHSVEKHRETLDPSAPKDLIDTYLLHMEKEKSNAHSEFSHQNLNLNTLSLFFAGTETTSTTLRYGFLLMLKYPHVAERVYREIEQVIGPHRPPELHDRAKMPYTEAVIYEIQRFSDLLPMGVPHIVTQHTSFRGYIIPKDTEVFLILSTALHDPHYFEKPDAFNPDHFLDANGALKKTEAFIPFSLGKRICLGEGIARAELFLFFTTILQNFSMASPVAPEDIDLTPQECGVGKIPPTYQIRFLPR

[3] = Absorption & efflux: Caco-2 permeability; settings: human
[4] = Plasma stability, CD-1 mouse; assay type: in vitro ADME; settings: 2 μM
[5] = Microsome stability, CD-1 mouse; settings: microsomes, 2 μM
[6] = Microsome stability, human; assay type: in vitro ADME; settings: microsomes, 2 μM
CYP450 2D6 = CYP450 2D6 (Homo sapiens, UniProt P10635); test: CYP450 panel, 2D6; settings: 10 μM; substrate dextromethophan
CYP450 3A4 = CYP450 3A4 (Homo sapiens, UniProt P08684); test: CYP450 panel, 3A4; settings: 10 μM; for 3A4*: substrate midazolam; for 3A4^: substrate testosterone
CYP450 2C19 = CYP450 2C19 (Homo sapiens, UniProt P33261); test: CYP450 panel, 2C19; settings: 10 μM; substrate mephenytoin
CYP450 1A2 = biological target: T3, CYP450 1A2 (Homo sapiens, UniProt P05177); test: CYP450 panel, 1A2; assay type: in vitro ADME; settings: 10 μM; substrate phenacetin
T3 sequence (P05177 1-516): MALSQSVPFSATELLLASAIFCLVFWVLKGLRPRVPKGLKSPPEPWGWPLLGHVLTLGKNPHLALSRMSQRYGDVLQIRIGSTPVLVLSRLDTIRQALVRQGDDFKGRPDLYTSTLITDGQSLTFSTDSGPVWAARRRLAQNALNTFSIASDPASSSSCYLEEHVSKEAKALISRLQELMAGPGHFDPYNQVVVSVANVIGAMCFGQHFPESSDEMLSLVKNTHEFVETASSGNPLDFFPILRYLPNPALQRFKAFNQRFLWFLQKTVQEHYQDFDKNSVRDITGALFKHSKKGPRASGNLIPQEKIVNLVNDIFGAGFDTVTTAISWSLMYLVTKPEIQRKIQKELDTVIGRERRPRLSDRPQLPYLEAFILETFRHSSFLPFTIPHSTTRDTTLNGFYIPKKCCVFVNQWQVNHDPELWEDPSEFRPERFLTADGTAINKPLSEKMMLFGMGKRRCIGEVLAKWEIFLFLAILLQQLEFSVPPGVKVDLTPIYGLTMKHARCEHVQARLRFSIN

[7] = Plasma stability, beagle dog; assay type: in vitro ADME; settings: 2 μM
[8] = Microsome stability, beagle dog; assay type: in vitro ADME; settings: microsomes, 2 μM
hERG Channel = hERG Channel (Homo sapiens, UniProt Q12809); test: cell-based
[9] = Pharmacokinetics, single dose, 2-hour tissue levels in Colon26 tumor bearing mice; assay type: in vivo; settings: single dose 100 mg/kg p.o., 2-hour post dose; for concentration at 2 h: female, athymic BALB/c nude or BALB/c, mouse, po
Description: Female mice (either athymic BALC/c nude, or BALB/c mice) were inoculated with a single subcutaneous injection of 0.2 ml of mouse Colon-26 cell suspension (1×10^5 cells per animal) in the inguinal region. Colon26 (C26) tumor bearing mice received a single dose (3 mice/treatment) of vehicle (10% DMSO/90% [20% SBE-β-CD in saline], pH 5) containing compounds at 100 mg/kg by gavage (p.o.) and 2-hour post dose humanely euthanized.
Blood was obtained through cardiac puncture into K+EDTA tubes, mixed by inversion and centrifuged to obtain the plasma. Tissues were excised, cleaned of surrounding tissues. All samples immediately snap frozen in liquid N2 prior to LC-MS/MS analysis (using Waters HSS T3 2.1×50 mm (1.8 um) LC column, and an API-6500 Electrospray MS unit).

[10] = Caco-2, A-B Permeability Ranking
[11] = Caco-2, Mean Papp A-B (10^−6 cm/s)

Sequence of hERG Channel (Q12809 whole entry): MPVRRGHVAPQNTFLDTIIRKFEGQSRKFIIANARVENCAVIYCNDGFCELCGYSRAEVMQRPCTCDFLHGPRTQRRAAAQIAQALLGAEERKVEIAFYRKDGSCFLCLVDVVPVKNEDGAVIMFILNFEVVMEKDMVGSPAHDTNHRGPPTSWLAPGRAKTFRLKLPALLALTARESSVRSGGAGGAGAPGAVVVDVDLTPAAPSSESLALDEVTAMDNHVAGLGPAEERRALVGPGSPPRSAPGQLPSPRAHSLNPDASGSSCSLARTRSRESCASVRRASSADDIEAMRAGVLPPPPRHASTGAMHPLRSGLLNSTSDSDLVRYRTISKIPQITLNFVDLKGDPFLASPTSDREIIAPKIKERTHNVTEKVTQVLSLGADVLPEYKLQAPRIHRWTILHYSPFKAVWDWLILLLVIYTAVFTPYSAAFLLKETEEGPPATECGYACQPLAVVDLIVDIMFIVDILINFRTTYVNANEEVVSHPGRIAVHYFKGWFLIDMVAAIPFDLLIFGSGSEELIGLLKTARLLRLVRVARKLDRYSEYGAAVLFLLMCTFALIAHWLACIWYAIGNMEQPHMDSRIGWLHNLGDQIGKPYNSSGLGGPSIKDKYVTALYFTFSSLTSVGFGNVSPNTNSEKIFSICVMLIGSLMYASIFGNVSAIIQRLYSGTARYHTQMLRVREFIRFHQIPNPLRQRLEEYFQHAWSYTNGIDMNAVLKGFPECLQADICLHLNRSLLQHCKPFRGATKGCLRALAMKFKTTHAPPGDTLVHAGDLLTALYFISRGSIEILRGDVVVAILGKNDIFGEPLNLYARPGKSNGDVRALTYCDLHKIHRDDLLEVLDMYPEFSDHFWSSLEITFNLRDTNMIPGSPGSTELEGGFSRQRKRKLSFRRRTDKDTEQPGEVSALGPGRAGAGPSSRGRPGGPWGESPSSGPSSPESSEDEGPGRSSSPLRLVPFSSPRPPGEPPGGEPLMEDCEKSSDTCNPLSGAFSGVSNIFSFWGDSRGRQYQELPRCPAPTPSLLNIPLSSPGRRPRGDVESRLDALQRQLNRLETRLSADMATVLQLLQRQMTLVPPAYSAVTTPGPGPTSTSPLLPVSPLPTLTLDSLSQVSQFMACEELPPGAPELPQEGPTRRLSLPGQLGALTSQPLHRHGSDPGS
Sequence of CYP450 3A4 (P08684 whole entry): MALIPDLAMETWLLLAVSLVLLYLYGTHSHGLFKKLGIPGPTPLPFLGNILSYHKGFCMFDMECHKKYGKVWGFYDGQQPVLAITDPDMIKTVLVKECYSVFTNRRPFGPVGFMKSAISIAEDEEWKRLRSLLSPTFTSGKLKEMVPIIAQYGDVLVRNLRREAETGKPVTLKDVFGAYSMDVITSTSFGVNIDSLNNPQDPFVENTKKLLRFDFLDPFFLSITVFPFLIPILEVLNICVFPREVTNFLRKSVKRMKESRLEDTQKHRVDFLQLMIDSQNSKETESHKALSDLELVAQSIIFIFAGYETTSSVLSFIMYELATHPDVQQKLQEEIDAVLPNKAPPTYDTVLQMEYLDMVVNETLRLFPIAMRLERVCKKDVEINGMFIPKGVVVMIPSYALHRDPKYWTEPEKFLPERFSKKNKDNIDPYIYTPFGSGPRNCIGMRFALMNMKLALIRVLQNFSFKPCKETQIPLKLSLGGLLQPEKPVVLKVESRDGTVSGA
Sequence of CYP450 2D6 (P10635 whole entry): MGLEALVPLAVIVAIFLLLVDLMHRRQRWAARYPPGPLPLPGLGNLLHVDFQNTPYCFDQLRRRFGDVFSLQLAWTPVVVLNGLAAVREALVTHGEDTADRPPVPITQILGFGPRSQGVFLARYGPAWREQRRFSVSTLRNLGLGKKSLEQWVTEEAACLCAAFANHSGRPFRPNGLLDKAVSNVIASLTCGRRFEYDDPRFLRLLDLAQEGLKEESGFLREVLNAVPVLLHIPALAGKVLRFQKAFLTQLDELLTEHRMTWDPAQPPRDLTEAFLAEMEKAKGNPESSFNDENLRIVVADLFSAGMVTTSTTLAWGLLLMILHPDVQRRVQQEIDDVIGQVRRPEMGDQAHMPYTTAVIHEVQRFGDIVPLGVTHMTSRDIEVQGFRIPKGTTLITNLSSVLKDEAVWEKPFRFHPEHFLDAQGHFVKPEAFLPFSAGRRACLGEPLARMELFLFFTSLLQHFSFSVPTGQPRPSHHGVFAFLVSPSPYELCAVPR
Sequence of CYP450 2C9 (P11712 whole entry): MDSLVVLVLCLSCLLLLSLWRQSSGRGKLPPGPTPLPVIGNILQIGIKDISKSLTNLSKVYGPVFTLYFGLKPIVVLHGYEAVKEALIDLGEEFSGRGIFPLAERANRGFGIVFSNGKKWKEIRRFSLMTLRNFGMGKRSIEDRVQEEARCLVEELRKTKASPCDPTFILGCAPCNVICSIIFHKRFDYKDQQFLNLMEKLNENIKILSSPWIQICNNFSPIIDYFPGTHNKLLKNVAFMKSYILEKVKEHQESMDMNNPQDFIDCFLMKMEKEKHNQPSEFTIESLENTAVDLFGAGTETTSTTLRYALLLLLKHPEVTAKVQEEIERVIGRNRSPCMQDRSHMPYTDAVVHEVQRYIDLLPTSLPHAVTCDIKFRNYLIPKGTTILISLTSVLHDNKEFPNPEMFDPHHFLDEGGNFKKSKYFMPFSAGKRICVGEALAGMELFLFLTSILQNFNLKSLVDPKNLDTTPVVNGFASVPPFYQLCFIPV
Sequence of CYP450 2C19 (P33261 whole entry): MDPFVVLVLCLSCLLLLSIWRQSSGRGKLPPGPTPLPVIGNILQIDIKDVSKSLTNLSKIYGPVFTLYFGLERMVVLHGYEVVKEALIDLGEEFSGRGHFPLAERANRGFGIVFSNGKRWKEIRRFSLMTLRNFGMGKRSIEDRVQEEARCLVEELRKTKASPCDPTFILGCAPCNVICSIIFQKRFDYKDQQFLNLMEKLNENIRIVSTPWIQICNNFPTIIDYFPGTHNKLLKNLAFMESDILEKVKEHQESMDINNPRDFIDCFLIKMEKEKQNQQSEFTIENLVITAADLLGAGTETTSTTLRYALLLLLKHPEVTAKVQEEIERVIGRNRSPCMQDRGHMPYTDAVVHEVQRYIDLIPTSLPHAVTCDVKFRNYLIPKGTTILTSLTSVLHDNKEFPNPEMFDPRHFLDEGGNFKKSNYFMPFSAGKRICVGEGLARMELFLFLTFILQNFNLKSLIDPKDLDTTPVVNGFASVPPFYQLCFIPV

Row | Structure (SMILES) | activity at 0.01 µM (A549 pERK) [%] | activity at 0.1 µM [2] [%] | 2C9* (CYP450 2C9) | Human (% Reamining @2 hour) (Plasma stability, human) [%] | 2C8* (CYP450 2C8) | 2B6* (CYP450 2B6) | Papp B→A at 2 h, 10 μM [3] [×10⁻⁶ cm/s] | efflux ratio at 2 h, 10 μM [3] | Papp A→B at 2 h, 10 μM [3, 10] [×10⁻⁶ cm/s] | Papp A→B at 2 h, 10 μM [3, 11] [×10⁻⁶ cm/s] | CD-1 Mouse (% Reamining @2 hour) [4] [%] | CD-1 Mouse (% Reamining @1 hour) [5] [%] | Human (% Reamining @1 hour) [6] [%] | 2D6* (CYP450 2D6) | 3A4* (CYP450 3A4) | 3A4^ (CYP450 3A4) | 2C19* (CYP450 2C19) | 1A2* (CYP450 1A2) | Beagle Dog (% Reamining @2 hour) [7] [%] | Beagle Dog (% Reamining @1 hour) [8] [%] | other results
1 | CNS(=O)(=O)Nc1cccc(Cc2c(CN3CCNCC3)c3cc(F)c(OC(=O)N(C)C)cc3oc2=O)c1F [Compound 134] | 33.1 | 26.9 |  |  |  |  |  |  |  |  |  |  |  |  |  |  |  |  |  |  | activity at 10 µM [1]: 23.4%
2 | CNS(=O)(=O)Nc1cccc(Cc2c(CNC(=O)OCCO)c3ccc(OC(=O)N(C)C)cc3oc2=O)c1F [Compound 106] |  |  |  |  |  |  |  |  |  |  |  |  |  |  |  |  |  |  |  |  | activity at 10 µM (A549 pERK): 27.9%; pERK: total ERK (% relative to vehicle) [1]: 27.88%
3 | CNS(=O)(=O)Nc1cccc(Cc2c(CNCC#N)c3ccc(OC(=O)N(C)C)cc3oc2=O)c1F [Compound 13] |  |  | −4.6 | 87.3 | 6.2 | 15.8 | 20 | 5.57 | > 1 | 3.59 | 87.1 | 16.8 | 57.7 | −2.6 | 25.7 | 34.9 | 6.2 | 6.5 | 95.9 | 69.6 | IC50 (hERG Channel): > 30 µM; concentration at 2 h ([9]; liver, read-out: Liver): 36.6 ng/g; concentration at 2 h ([9]; tumor, read-out: Tumor): 26 ng/g; Muscle [9]: BQL; Plasma [9]: BQL
4 | CNS(=O)(=O)Nc1cccc(Cc2c(CNC(=O)OCCO)c3ccc(OC(=O)N(C)C)cc3oc2=O)c1F [Compound 185] |  |  |  |  |  |  |  |  |  |  |  |  |  |  |  |  |  |  |  |  | pERK: total ERK (% relative to vehicle) [1]: 7.39%
5 | C#CCNCc1c(Cc2cccc(NS(=O)(=O)NC)c2F)c(=O)oc2cc(OC(=O)N(C)C)ccc12 [Compound 14] | 64 | 59.1 | 8.2 | 96.0 | 8.4 | 15.6 | 26.1 | 2.8 | > 1 | 9.34 | 95.0 | 13.2 | 38.1 | 6.6 | 26.7 | 39.3 | 4.0 | 6.3 | 91.2 | 51.6 | IC50 (hERG Channel): 19.4 µM; concentration at 2 h ([9]; liver, read-out: Liver): 17.8 ng/g; concentration at 2 h ([9]; muscle, read-out: Muscle): 19 ng/g; concentration at 2 h ([9]; plasma, read-out: Plasma): 18.5 ng/mL; concentration at 2 h ([9]; tumor, read-out: Tumor): 2.68 ng/g
6 | CNS(=O)(=O)Nc1cccc(Cc2c(CN3CCNCC3)c3ccc(OC(=O)N(C)C)cc3oc2=O)c1F [Compound 10] | 27.7 | 42.2 | 1.8 | 92.1 | −1.0 | 22.4 | 3.8 | 56.3 | < 1 | 0.0676 | 97.7 | 91.3 | 80.1 | −3.4 | 17.3 | 16.2 | 4.8 | 0.4 | 96.2 | 73.9 | IC50 (hERG Channel): > 30 µM
7 | CNS(=O)(=O)Nc1cccc(Cc2c(CNCC(=O)N3CCNCC3)c3ccc(OC(=O)N(C)C)cc3oc2=O)c1F [Compound 191] | 131 |  |  |  |  |  |  |  |  |  |  |  |  |  |  |  |  |  |  |  | activity at 10 µM (A549 pERK): 8.6%; activity at 10 µM [1]: 7.34%
